Assays:
[1] = Cytotoxicity against human L02 cells assessed as reduction in cell growth incubated for 48 hrs by MTT assay; format: cell-based
HepG2 [2] = test: Cytotoxicity against human HepG2 cells assessed as reduction in cell growth pretreated for 1 hr with NQO1 inhibitor, dicoumarol followed by incubation with compound for 48 hrs by MTT assay; format: functional
HepG2 [3] = test: Induction of apoptosis in human HepG2 cells assessed as necrotic cells at 4.4 uM incubated for 24 hrs by annexinV-FITC and PI staining based flow cytometry analysis (reference value: 0.35 %); format: functional
HepG2 [4] = test: Antitumor activity against human HepG2 cells xenografted in athymic nude mouse assessed as inhibition of tumor growth at 20 mg/kg, iv administered once every 2 days for 19 days by caliper analysis relative to control; format: functional; settings: 456 h, time 19 day
HepG2 [5] = test: Induction of apoptosis in human HepG2 cells assessed as necrotic cells at 1.1 uM incubated for 24 hrs by annexinV-FITC and PI staining based flow cytometry analysis (reference value: 0.35 %); format: functional
HepG2 [6] = test: Induction of ROS generation in human HepG2 cells at 5 uM by DCFH-DA staining based flow cytometry analysis; format: functional, cell-based; settings: time 3-5 hrs, TDE = time-dependent effect
HepG2 [7] = test: Induction of apoptosis in human HepG2 cells assessed as late apoptotic cells at 2.2 uM incubated for 24 hrs by annexinV-FITC and PI staining based flow cytometry analysis (reference value: 2.27 %); format: functional
HepG2 [8] = test: Induction of apoptosis in human HepG2 cells assessed as early apoptotic cells at 1.1 uM incubated for 24 hrs by annexinV-FITC and PI staining based flow cytometry analysis (reference value: 2.65 %); format: functional
HepG2 [9] = test: Induction of cell cycle arrest in human HepG2 cells assessed as accumulation at S/G2 phase at 3 uM incubated for 24 hrs by PI staining based flow cytometry analysis (reference value: 35.2 %); format: functional
A549 = test: Cytotoxicity against human A549 cells assessed as reduction in cell growth pretreated for 1 hr with ROS scavenger, N-acetyl cysteine followed by incubation with compound for 48 hrs by MTT assay; format: functional
MCF7 = test: Cytotoxicity against NQO1-rich human MCF7 cells assessed as reduction in cell growth incubated for 48 hrs by MTT assay; format: functional
[10] = molecular target: NAD(P)H dehydrogenase [quinone] 1 (Homo sapiens) (UniProt P15559); test: Activation of recombinant human C-terminal His-tagged NQO1 (1 to 274 residues) expressed in Escherichia coli assessed as cytochrome c reduction using menadione as substrate in presence of NADPH by spectrophotometry; settings: filed as activator, dose 12.5-50 µM

SMILES: COc1ccc(C2CC(=O)NC3=C2C(=O)C(=O)c2ccccc23)cc1O (configuration not stated)
- GI50 at 48 h [1]: 4.36 µM
- GI50 (HepG2 [2]): 4.93 µM
- Activity (HepG2 [3]): 1.07%
- inhibition in vivo at 20 mg/kg (HepG2 [4]): 50.3%
- Activity (HepG2 [5]): 0.77%
- Activity (HepG2 [6]): Tde
- Activity (HepG2 [7]): 12.2%
- Activity (HepG2 [8]): 7.92%
- Activity (HepG2 [9]): 41.4%
- GI50 (A549): 5.48 µM
- GI50 (MCF7): 3.06 µM
- Activity [10]: Dose-dependent effect
